# According to publication PMC11079024, “Identification of a family of species-selective complex I inhibitors as potential anthelmintics” (Nature Communications, 2024):
# pIC50: −log10 of the molar value. “And” between values parts separate entries of the source, which are not always exact repeats. Equal entries are not always repeated.
# System: P. hermaphrodita complex I
# Test: In vitro complex I activity assay, P. hermaphrodita mitochondria
# Assay type: biochemical, Phasmarhabditis hermaphrodita
# Conditions: for in vitro complex I activity relative to solvent control: P. hermaphrodita mitochondria
# Protocol: Mitochondria were isolated from the following free-living nematode strains: C. elegans—N2, CB3474, ECA882, ECA917, ECA1075, ECA1080; C. briggsae—AF16; P. pacificus—PS312; and P. hermaphrodita—B178. With the exception of the P. hermaphrodita strain B178, adult worms of each strain were grown in bulk through liquid culture to obtain mitochondria in sufficient quantities. Due to poor growth in liquid media, mixed stage populations of P. hermaphrodita were washed off and collected from NGM plates seeded with OP50. The isolation of mitochondria from all free-living nematode strains followed the protocol previously outlined in Burns et al.[24]. In brief, a 1 L saturated culture of E. coli HB101 was concentrated 20-fold in 50 mL complete S-medium. ~500,000 L1 worms synchronized from an embryo preparation performed the day prior were added to the S-media/HB101 suspension and grown to adulthood over the course of 3.5 days at 20 °C with shaking at 165 rpm. Following growth, worms were collected in 10 ×15 mL conical tubes and washed 7 times in M9 buffer. Worm suspensions were then combined into a single 15 mL conical tube and diluted to a final volume of 15 mL with M9 buffer. 1 mL aliquots of worm suspension were then distributed to 15 × 1.5 mL screw-cap microcentrifuge tubes and were pelleted at 500 g for 1 min. Excess M9 was aspirated without disturbing the worm pellet. 600 μL ice-cold isolate buffer A (250 mM sucrose, 10 mM Tris (pH 7.5), 1 mM EDTA, 1 mM PMSF (freshly prepared)) and 300 μL cold glass beads were then added to each tube. Tubes were incubated on ice for 10 min, and the worms were then lysed by bead beating (6 x 30 s, with 1 min cooling intervals). Tubes containing worm lysate were centrifuged at 1,000 g for 10 min at 4 °C and the supernatant was transferred to 15 new microcentrifuge tubes on ice. The tubes were centrifuged a second time at 1,000 g for 10 min at 4 °C and the supernatant was once again transferred to 15 new microcentrifuge tubes on ice. These tubes were then centrifuged at 16,000 g for 10 min at 4 °C. The resulting mitochondrial pellet was washed twice by re-suspension in 300 μL of ice-cold isolate buffer B (250 mM sucrose, 10 mM Tris (pH 7.5), 1 mM EDTA). Following the final wash, isolation buffer was aspirated from each tube and the pellets were flash-frozen in ethanol/dry ice and stored at −80 °C until needed.
# The enzymatic activities of individual ETC complexes (I-IV) were assessed spectrophotometrically in isolated mitochondria using a Varioskan LUX Multimode plate reader (ThermoFisher Scientific). Mitochondrial pellets previously isolated were thawed on ice and resuspended in ice-cold isolation buffer (250 mM sucrose, 10 mM Tris (pH 7.5), 1 mM EDTA). The BCA assay (Walker, 1994) was used to quantify the protein concentration of mitochondria suspensions; solutions were diluted to a concentration of 0.2 mg/mL for use in all assays. For the complex I assay, mitochondria pellets were freeze-thawed on ice three times to increase enzyme accessibility. […] 20 μL mitochondria suspension was then added/mixed with a pipette to initiate the reaction. Immediately following the addition of mitochondria, absorbance was measured (complex I and II: 600 nm; complex III and IV: 550 nm) in 30 s intervals over 15 min. Enzymatic activity was determined in each reaction by plotting absorbance versus time and calculating the slope of the curve during the initial linear phase of the reaction. […] Percent activity of each complex was calculated by dividing the enzyme-specific activity of each well by the enzyme-specific activity of the corresponding solvent controls.
# Chemical solutions were prepared in complex I assay buffer composed of 25 mM KPi buffer (pH 7.5), 3 mg/mL bovine serum albumin (BSA), 80 μM NADH, 60 μM decylubiquinone, 160 μM DCIP, 2 μM antimycin A and 2 mM KCN. […]
compound,measurement,setting,value
Cc1nc2ccccc2n1Cc1ccc(Cl)cc1 [STK697993],in vitro complex I activity relative to solvent control,"0.0001 µM, Mean",89.612%
same,in vitro complex I activity relative to solvent control,"0.0001 µM, single replicate",93.319% and 105.139% and 70.379%
same,in vitro complex I activity relative to solvent control,"0.0005 µM, Mean",95.634%
same,in vitro complex I activity relative to solvent control,"0.0005 µM, single replicate",119.766% and 92.855% and 74.280%
same,in vitro complex I activity relative to solvent control,"0.001 µM, Mean",90.469%
same,in vitro complex I activity relative to solvent control,"0.001 µM, single replicate",96.266% and 129.304% and 45.836%
same,in vitro complex I activity relative to solvent control,"0.0025 µM, Mean",83.278%
same,in vitro complex I activity relative to solvent control,"0.0025 µM, single replicate",64.388% and 114.111% and 71.337%
same,in vitro complex I activity relative to solvent control,"0.005 µM, Mean",110.209%
same,in vitro complex I activity relative to solvent control,"0.005 µM, single replicate",99.329% and 145.962% and 85.335%
same,in vitro complex I activity relative to solvent control,"0.013 µM, Mean",102.008%
same,in vitro complex I activity relative to solvent control,"0.013 µM, single replicate",103.702% and 118.527% and 83.796%
same,in vitro complex I activity relative to solvent control,"0.025 µM, Mean",81.894%
same,in vitro complex I activity relative to solvent control,"0.025 µM, single replicate",82.152% and 107.849% and 55.682%
same,in vitro complex I activity relative to solvent control,"0.063 µM, Mean",53.328%
same,in vitro complex I activity relative to solvent control,"0.063 µM, single replicate",61.601% and 65.149% and 33.235%
same,in vitro complex I activity relative to solvent control,"0.125 µM, Mean",31.057%
same,in vitro complex I activity relative to solvent control,"0.125 µM, single replicate",37.073% and 51.097% and 5.000%
same,in vitro complex I activity relative to solvent control,"0.313 µM, Mean",8.632%
same,in vitro complex I activity relative to solvent control,"0.313 µM, single replicate",10.235% and 15.661% and 0.000%
same,in vitro complex I activity relative to solvent control,"0.625 µM, Mean",5.779%
same,in vitro complex I activity relative to solvent control,"0.625 µM, single replicate",0.000% and 9.493% and 7.843%
same,in vitro complex I activity relative to solvent control,"1.5 µM, Mean",4.860%
same,in vitro complex I activity relative to solvent control,"1.5 µM, single replicate",0.000% and 2.483% and 12.098%
same,in vitro complex I activity relative to solvent control,"3 µM, Mean",2.448%
same,in vitro complex I activity relative to solvent control,"3 µM, single replicate",0.000% and 7.344%
same,in vitro complex I activity relative to solvent control,"15 µM, Mean",12.306%
same,in vitro complex I activity relative to solvent control,"15 µM, single replicate",12.065% and 18.802% and 6.051%
same,in vitro complex I activity relative to solvent control,"37.5 µM, Mean",7.732%
same,in vitro complex I activity relative to solvent control,"37.5 µM, single replicate",0.065% and 16.547% and 6.585%
same,in vitro complex I activity relative to solvent control,"75 µM, Mean",3.784%
same,in vitro complex I activity relative to solvent control,"75 µM, single replicate",0.000% and 11.350%
same,pIC50,purified mitochondria,7.15
